Tests used:
[1] = target: cAMP-dependent protein kinase catalytic subunit alpha (Homo sapiens) (UniProt P17612); settings: Compound concentration 1000.0 nM
[2] = target: Glutamate NMDA receptor (Rattus norvegicus) (UniProt P35439+Q00959+Q00960+Q00961+Q62645+Q8VHN2+Q9R1M7); test: NMDA Eurofins-Cerep binding assay; assay type: protein-complex assay; set-up: ligand concentration 5 nM; settings: filed as antagonist, Compound concentration 10.0 uM
[3] = target: Serine/threonine-protein kinase LATS1 (Homo sapiens) (UniProt O95835); settings: Compound concentration 1000.0 nM
[4] = target: Cyclin-dependent kinase 9 (Homo sapiens) (UniProt P50750); settings: Compound concentration 1000.0 nM
[5] = target: RAC-alpha serine/threonine-protein kinase (Homo sapiens) (UniProt P31749); settings: Compound concentration 1000.0 nM
[6] = target: Ephrin type-A receptor 6 (Homo sapiens) (UniProt Q9UF33); settings: Compound concentration 1000.0 nM
[7] = test system: Tyrosine-protein kinase ABL1 (Homo sapiens), P00519 [Y253F]; settings: Compound concentration 1000.0 nM
[8] = test system: Hepatocyte growth factor receptor (Homo sapiens), P08581 [Y1235D]; settings: Compound concentration 1000.0 nM
[9] = target: Membrane-associated tyrosine- and threonine-specific cdc2-inhibitory kinase (Homo sapiens) (UniProt Q99640); settings: Compound concentration 1000.0 nM
[10] = target: Ribosomal protein S6 kinase alpha-1 (Homo sapiens) (UniProt Q15418); settings: Compound concentration 1000.0 nM
[11] = test system: Tyrosine-protein kinase ABL1 (Homo sapiens), P00519 [Q252H]; settings: Compound concentration 1000.0 nM
[12] = target: T1, Muscarinic acetylcholine receptor M2 (Homo sapiens) (UniProt P08172); test: M2 (h) Eurofins-Cerep binding assay; set-up: ligand concentration 2 nM; settings: filed as antagonist, Compound concentration 10.0 uM
T1 sequence (whole entry): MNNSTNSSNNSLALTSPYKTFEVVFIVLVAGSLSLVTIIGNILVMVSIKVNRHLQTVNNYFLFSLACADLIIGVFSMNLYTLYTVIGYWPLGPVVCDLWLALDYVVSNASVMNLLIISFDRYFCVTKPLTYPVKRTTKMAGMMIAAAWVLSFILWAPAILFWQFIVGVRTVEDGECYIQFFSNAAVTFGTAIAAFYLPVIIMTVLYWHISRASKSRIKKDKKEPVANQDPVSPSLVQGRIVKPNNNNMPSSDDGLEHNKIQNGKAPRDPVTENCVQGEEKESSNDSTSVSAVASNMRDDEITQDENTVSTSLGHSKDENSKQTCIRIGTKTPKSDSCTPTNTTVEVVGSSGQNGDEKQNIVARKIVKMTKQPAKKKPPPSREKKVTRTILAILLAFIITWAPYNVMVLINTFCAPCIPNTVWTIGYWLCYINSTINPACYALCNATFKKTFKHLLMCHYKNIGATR

[13] = target: Adenosine receptor A1 (Homo sapiens) (UniProt P30542); test: A1 (h) Eurofins-Cerep binding assay; set-up: ligand concentration 1 nM; settings: filed as antagonist, Compound concentration 10.0 uM
[14] = target: Ephrin type-B receptor 6 (Homo sapiens) (UniProt O15197); settings: Compound concentration 1000.0 nM
[15] = test system: Mast/stem cell growth factor receptor Kit (Homo sapiens), P10721 [L576P]; settings: Compound concentration 1000.0 nM
[16] = test system: Tyrosine-protein kinase ABL1 (Homo sapiens), P00519 [F317L]; settings: Compound concentration 1000.0 nM
[17] = target: Serine/threonine-protein kinase MRCK alpha (Homo sapiens) (UniProt Q5VT25); settings: Compound concentration 1000.0 nM
[18] = target: Cyclin-dependent kinase 5 (Homo sapiens) (UniProt Q00535); settings: Compound concentration 1000.0 nM
[19] = test system: Tyrosine-protein kinase ABL1 (Homo sapiens), P00519 [M351T]; settings: Compound concentration 1000.0 nM
[20] = target: Non-receptor tyrosine-protein kinase TNK1 (Homo sapiens) (UniProt Q13470); settings: Compound concentration 1000.0 nM
[21] = test system: Mast/stem cell growth factor receptor Kit (Homo sapiens), P10721 [V559D,V654A]; settings: Compound concentration 1000.0 nM
[22] = target: Tyrosine-protein kinase Yes (Homo sapiens) (UniProt P07947); settings: Compound concentration 1000.0 nM
[23] = target: Ephrin type-B receptor 4 (Homo sapiens) (UniProt P54760); settings: Compound concentration 1000.0 nM
[24] = target: Casein kinase I isoform delta (Homo sapiens) (UniProt P48730); settings: Compound concentration 1000.0 nM
[25] = target: Calcium/calmodulin-dependent protein kinase kinase 1 (Homo sapiens) (UniProt Q8N5S9); settings: Compound concentration 1000.0 nM
[26] = target: Serine/threonine-protein kinase LATS2 (Homo sapiens) (UniProt Q9NRM7); settings: Compound concentration 1000.0 nM
[27] = target: Mitogen-activated protein kinase kinase kinase 5 (Homo sapiens) (UniProt Q99683); settings: Compound concentration 1000.0 nM
[28] = target: Vascular endothelial growth factor receptor 3 (Homo sapiens) (UniProt P35916); settings: Compound concentration 1000.0 nM
[29] = target: Beta-1 adrenergic receptor (Homo sapiens) (UniProt P08588); test: Beta1 (h) Eurofins-Cerep binding assay; set-up: ligand concentration 0.3 nM; settings: filed as agonist, Compound concentration 10.0 uM
[30] = test system: Serine/threonine-protein kinase B-raf (Homo sapiens), P15056 [V600E]; settings: Compound concentration 1000.0 nM
[31] = target: Serine/threonine-protein kinase DCLK2 (Homo sapiens) (UniProt Q8N568); settings: Compound concentration 1000.0 nM
[32] = target: Tyrosine-protein kinase HCK (Homo sapiens) (UniProt P08631); settings: Compound concentration 1000.0 nM
[33] = target: Serine/threonine-protein kinase SBK1 (Homo sapiens) (UniProt Q52WX2); settings: Compound concentration 1000.0 nM
[34] = target: Mitotic checkpoint serine/threonine-protein kinase BUB1 (Homo sapiens) (UniProt O43683); settings: Compound concentration 1000.0 nM
[35] = target: Casein kinase I isoform gamma-2 (Homo sapiens) (UniProt P78368); settings: Compound concentration 1000.0 nM
[36] = target: Myosin-IIIb (Homo sapiens) (UniProt Q8WXR4); settings: Compound concentration 1000.0 nM
[37] = target: Serine/threonine-protein kinase OSR1 (Homo sapiens) (UniProt O95747); settings: Compound concentration 1000.0 nM
[38] = target: SNF-related serine/threonine-protein kinase (Homo sapiens) (UniProt Q9NRH2); settings: Compound concentration 1000.0 nM

Chain of Serine/threonine-protein kinase OSR1 (Homo sapiens) (O95747 2-527 limits assumed): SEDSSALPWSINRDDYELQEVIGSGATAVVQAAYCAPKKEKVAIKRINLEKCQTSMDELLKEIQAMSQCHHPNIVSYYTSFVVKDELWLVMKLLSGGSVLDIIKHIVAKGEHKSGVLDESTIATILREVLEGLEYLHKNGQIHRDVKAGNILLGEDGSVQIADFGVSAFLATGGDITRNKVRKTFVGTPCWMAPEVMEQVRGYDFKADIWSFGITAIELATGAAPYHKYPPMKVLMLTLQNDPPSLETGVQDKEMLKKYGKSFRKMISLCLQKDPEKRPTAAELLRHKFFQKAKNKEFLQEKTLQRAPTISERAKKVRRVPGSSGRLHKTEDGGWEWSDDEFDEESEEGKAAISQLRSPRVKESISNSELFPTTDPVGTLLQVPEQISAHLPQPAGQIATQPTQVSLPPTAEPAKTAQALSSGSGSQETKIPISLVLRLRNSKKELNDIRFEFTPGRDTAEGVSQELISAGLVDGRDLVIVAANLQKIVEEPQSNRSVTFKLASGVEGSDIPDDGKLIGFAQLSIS
Chain of Ephrin type-A receptor 6 (Homo sapiens) (Q9UF33 whole entry): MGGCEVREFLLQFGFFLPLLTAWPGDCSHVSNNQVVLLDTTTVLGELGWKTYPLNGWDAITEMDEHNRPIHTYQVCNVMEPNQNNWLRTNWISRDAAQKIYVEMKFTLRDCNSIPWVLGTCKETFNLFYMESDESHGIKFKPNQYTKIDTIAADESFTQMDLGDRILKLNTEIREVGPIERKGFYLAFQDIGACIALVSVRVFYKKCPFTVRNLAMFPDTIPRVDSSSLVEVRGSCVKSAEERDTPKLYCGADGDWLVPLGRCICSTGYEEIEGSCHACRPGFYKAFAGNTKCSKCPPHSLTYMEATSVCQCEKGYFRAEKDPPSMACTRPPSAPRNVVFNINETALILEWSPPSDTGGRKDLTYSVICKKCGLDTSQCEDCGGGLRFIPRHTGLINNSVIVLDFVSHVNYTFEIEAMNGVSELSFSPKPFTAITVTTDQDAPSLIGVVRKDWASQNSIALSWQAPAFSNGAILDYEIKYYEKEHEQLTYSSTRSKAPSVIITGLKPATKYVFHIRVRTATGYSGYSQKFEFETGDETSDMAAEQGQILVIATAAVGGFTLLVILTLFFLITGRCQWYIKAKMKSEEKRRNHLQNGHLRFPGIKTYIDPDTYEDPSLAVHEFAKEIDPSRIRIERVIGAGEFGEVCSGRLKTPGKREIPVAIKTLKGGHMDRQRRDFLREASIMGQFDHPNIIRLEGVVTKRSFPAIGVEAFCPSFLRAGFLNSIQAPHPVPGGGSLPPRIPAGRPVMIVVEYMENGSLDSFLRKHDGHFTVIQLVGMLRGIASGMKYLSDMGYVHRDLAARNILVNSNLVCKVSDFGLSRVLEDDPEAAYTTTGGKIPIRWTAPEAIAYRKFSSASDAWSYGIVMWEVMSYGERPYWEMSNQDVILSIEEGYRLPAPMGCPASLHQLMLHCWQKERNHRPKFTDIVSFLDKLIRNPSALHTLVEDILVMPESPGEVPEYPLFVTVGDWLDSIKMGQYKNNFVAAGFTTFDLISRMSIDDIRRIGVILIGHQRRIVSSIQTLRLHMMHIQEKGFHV
Chain of Tyrosine-protein kinase Yes (Homo sapiens) (P07947 2-543 limits assumed): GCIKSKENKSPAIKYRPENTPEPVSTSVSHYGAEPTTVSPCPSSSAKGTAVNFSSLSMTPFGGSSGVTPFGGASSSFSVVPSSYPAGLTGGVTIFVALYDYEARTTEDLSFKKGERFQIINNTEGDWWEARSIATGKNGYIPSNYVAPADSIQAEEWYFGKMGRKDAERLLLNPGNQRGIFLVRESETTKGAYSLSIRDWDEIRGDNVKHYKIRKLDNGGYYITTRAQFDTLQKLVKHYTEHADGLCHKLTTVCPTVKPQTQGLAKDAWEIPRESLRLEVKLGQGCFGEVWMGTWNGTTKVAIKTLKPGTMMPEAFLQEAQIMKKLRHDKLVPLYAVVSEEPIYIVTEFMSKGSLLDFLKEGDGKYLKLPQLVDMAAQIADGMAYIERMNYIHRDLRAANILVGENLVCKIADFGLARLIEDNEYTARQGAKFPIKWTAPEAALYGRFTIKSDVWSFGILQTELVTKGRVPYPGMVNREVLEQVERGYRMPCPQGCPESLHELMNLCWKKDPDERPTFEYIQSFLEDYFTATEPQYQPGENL
Chain of Calcium/calmodulin-dependent protein kinase kinase 1 (Homo sapiens) (Q8N5S9 whole entry, looked up): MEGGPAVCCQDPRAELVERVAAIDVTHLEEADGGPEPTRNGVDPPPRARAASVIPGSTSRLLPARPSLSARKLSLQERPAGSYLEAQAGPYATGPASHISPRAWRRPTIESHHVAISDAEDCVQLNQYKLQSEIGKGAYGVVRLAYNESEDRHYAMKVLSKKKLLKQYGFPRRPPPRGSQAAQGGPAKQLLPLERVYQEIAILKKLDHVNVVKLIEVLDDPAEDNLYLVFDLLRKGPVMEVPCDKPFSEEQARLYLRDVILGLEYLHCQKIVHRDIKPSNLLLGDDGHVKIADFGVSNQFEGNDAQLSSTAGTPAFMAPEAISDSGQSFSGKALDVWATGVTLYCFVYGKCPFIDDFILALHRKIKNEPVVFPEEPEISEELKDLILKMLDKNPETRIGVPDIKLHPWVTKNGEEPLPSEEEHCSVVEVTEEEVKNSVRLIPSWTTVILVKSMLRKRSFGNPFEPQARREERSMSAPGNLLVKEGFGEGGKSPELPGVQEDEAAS
Chain of Serine/threonine-protein kinase DCLK2 (Homo sapiens) (Q8N568 whole entry): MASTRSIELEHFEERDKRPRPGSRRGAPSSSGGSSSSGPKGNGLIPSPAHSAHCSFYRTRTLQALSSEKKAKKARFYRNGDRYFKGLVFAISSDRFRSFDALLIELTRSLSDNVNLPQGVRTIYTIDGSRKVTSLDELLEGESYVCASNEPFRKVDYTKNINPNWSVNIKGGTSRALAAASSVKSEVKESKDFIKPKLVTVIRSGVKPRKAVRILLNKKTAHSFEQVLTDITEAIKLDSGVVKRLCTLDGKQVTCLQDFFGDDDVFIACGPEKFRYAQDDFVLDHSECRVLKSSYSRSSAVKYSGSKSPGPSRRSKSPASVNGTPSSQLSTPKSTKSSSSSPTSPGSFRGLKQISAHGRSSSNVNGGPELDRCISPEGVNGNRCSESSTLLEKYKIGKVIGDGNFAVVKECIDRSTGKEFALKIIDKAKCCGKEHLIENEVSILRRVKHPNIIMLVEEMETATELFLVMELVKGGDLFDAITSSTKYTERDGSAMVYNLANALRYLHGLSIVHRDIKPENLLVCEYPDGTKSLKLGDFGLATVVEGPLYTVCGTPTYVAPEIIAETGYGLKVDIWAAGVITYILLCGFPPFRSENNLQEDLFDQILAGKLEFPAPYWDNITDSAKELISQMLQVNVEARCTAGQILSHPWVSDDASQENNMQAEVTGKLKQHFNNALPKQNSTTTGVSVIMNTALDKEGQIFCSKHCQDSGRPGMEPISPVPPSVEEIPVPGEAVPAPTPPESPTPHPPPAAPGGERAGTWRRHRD
Chain of Casein kinase I isoform gamma-2 (Homo sapiens) (P78368 whole entry, looked up, canonical isoform): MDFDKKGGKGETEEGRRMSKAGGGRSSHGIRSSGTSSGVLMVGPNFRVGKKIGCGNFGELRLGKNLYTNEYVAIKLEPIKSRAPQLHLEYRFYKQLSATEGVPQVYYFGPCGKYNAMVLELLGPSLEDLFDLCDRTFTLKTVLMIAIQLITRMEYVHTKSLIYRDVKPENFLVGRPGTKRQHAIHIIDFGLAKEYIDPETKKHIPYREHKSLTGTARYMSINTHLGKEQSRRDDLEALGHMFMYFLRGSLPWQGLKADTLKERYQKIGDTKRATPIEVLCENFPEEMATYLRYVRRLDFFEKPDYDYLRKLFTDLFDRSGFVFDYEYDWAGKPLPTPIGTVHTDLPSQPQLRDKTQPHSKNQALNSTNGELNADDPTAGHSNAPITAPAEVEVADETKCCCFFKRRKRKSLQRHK
Chain of Beta-1 adrenergic receptor (Homo sapiens) (P08588 whole entry, looked up): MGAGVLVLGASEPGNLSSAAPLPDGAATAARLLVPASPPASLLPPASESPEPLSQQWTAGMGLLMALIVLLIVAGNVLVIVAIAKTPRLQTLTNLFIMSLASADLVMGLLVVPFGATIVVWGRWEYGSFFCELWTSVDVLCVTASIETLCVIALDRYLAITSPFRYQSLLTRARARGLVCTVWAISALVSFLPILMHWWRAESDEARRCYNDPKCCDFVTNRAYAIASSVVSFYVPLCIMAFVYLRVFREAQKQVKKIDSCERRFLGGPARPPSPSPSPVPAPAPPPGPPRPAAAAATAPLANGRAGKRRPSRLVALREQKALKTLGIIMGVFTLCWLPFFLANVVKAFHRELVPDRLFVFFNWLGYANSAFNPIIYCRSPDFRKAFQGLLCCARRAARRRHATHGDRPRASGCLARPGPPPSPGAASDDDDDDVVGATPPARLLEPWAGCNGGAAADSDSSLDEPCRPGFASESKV
Chain of Tyrosine-protein kinase HCK (Homo sapiens) (P08631 2-526 limits assumed): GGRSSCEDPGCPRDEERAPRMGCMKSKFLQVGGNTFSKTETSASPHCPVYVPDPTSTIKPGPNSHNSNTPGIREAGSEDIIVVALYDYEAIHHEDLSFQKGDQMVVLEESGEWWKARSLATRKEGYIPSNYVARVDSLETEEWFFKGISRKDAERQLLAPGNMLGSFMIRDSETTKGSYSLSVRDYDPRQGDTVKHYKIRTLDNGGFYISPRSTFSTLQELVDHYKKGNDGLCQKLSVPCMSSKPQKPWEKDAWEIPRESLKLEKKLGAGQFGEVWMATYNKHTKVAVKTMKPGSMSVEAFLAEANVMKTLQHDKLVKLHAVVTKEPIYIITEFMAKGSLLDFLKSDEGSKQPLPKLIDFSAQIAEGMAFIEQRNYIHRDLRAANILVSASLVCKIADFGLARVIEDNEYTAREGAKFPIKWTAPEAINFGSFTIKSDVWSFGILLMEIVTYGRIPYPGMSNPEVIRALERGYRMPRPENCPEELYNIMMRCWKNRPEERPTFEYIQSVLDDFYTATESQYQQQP

| Compound | residual activity [1] | % Inhibition of Control Specific Binding (Mean n=2) [2] | residual activity [3] | residual activity [4] | residual activity [5] | residual activity [6] | residual activity [7] | residual activity [8] | residual activity [9] | residual activity [10] | residual activity [11] | % Inhibition of Control Specific Binding (Mean n=2) [12] | % Inhibition of Control Specific Binding (Mean n=2) [13] | residual activity [14] | residual activity [15] | residual activity [16] | residual activity [17] | residual activity [18] | residual activity [19] | residual activity [20] | other results |
| --- | --- | --- | --- | --- | --- | --- | --- | --- | --- | --- | --- | --- | --- | --- | --- | --- | --- | --- | --- | --- | --- |
| CCCOc1ccc([C@H]2[C@H](C(=O)O)[C@@H](c3ccc4c(c3)OCO4)CN2CC(=O)Nc2c(CC)cccc2CC)cc1 [A-192621] | 100% | 3.3% | 77% | 88% | 97% | 100% | 75% | 100% | 74% | 74% | 86% | -8.8% | 8.3% | 65% | 90% | 62% | 94% | 100% | 69% | 100% | residual activity [21]: 98%; residual activity [22]: 99%; residual activity [23]: 100%; residual activity [24]: 80%; residual activity [25]: 86%; residual activity [26]: 97%; residual activity [27]: 91%; residual activity [28]: 90%; % Inhibition of Control Specific Binding (Mean n=2) [29]: 1.4%; residual activity [30]: 76%; residual activity [31]: 77%; residual activity [32]: 92%; residual activity [33]: 78%; residual activity [34]: 98%; residual activity [35]: 100%; residual activity [36]: 66%; residual activity [37]: 75%; residual activity [38]: 84% |
| CCCOc1ccc([C@@H]2[C@@H](C(=O)O)[C@H](c3ccc4c(c3)OCO4)CN2CC(=O)Nc2c(CC)cccc2CC)cc1 [A-1806262] | 100% | 6.6% | 57% | 87% | 100% | 98% | 87% | 99% | 100% | 77% | 99% | -7.1% | 4.2% | 77% | 100% | 82% | 90% | 100% | 80% | 93% | residual activity [21]: 94%; residual activity [22]: 90%; residual activity [23]: 96%; residual activity [24]: 83%; residual activity [25]: 81%; residual activity [26]: 100%; residual activity [27]: 97%; residual activity [28]: 100%; % Inhibition of Control Specific Binding (Mean n=2) [29]: 8.2%; residual activity [30]: 98%; residual activity [31]: 85%; residual activity [32]: 92%; residual activity [33]: 81%; residual activity [34]: 92%; residual activity [35]: 96%; residual activity [36]: 52%; residual activity [37]: 79%; residual activity [38]: 87% |

Source: ChEMBL document CHEMBL4507261, “Data for DCP probe A-192621” (2021)
